# Assay results as given in ChEMBL document CHEMBL5532639, “Heterocyclic pyrimidine derivatives as promising antibacterial agents” (Eur J Med Chem, 2023).
# Key:
# Staphylococcus aureus [1] = assay: Antibacterial activity against Staphylococcus aureus assessed as bacterial growth inhibition by measuring zone of inhibition at 50 ug/ml by agar cup diffusion assay; assay type: functional; conditions: read-out: IZ
# Escherichia coli [2] = assay: Antibacterial activity against Escherichia coli assessed as bacterial growth inhibition by measuring zone of inhibition at 50 ug/ml by agar cup diffusion assay; assay type: functional; conditions: read-out: IZ
# Pseudomonas aeruginosa [3] = assay: Antibacterial activity against Pseudomonas aeruginosa assessed as inhibition of microbial growth by broth micro-dilution method; assay type: functional
# Escherichia coli [4] = assay: Antibacterial activity against Escherichia coli assessed as inhibition of microbial growth by broth micro-dilution method; assay type: functional
# Staphylococcus aureus [5] = assay: Antibacterial activity against Staphylococcus aureus assessed as inhibition of microbial growth by broth micro-dilution method; assay type: functional
# Streptococcus pyogenes = assay: Antibacterial activity against Streptococcus pyogenes assessed as inhibition of microbial growth by broth micro-dilution method; assay type: functional
# Pseudomonas aeruginosa [6] = assay: Antibacterial activity against Pseudomonas aeruginosa assessed as reduction in microbial growth by measuring zone of inhibition; assay type: functional
# Bacillus subtilis [7] = assay: Antibacterial activity against Bacillus subtilis assessed as reduction in microbial growth by measuring zone of inhibition; assay type: functional
# Escherichia coli [8] = assay: Antibacterial activity against Escherichia coli assessed as reduction in microbial growth by measuring zone of inhibition; assay type: functional
# Staphylococcus aureus [9] = assay: Antibacterial activity against Staphylococcus aureus assessed as reduction in microbial growth by measuring zone of inhibition; assay type: functional
# Escherichia coli [10] = assay: Antimicrobial activity against Escherichia coli RCMB 010052 assessed as bacterial growth inhibition by measuring zone of inhibition at 50 ug/ml by agar cup diffusion assay; assay type: functional; conditions: read-out: IZ
# Streptococcus pneumoniae = assay: Antimicrobial activity against Streptococcus […] assessed as bacterial growth inhibition by measuring zone of inhibition at 50 ug/ml by agar cup diffusion assay; assay type: functional; conditions: read-out: IZ
# Bacillus subtilis [11] = assay: Antimicrobial activity against Bacillus subtilis RCMB 010069 assessed as bacterial growth inhibition by measuring zone of inhibition at 50 ug/ml by agar cup diffusion assay; assay type: functional; conditions: read-out: IZ
# Salmonella typhimurium = assay: Antibacterial activity against Salmonella typhimurium DT104 assessed as reduction in bacterial growth; assay type: functional, Salmonella enterica subsp. enterica serovar Typhimurium; conditions: Salmonella enterica
# Escherichia coli [12] = assay: Antibacterial activity against Escherichia coli ATCC 25922 assessed as bacterial growth inhibition; assay type: functional
# Staphylococcus aureus [13] = assay: Antibacterial activity against Staphylococcus aureus ATCC 3750 assessed as reduction in bacterial growth; assay type: functional
# Bacillus subtilis [14] = assay: Antibacterial activity against Bacillus subtilis 6633 assessed as reduction in bacterial growth; assay type: functional
# Bacillus subtilis [15] = assay: Antibacterial activity against Bacillus subtilis assessed as zone of inhibition at 20 mg/ml; assay type: functional; conditions: read-out: IZ
# Sarcina = assay: Antibacterial activity against Sarcina assessed as zone of inhibition at 20 mg/ml; assay type: functional; conditions: read-out: IZ
# Staphylococcus aureus [16] = assay: Antibacterial activity against Staphylococcus aureus assessed as zone of inhibition at 20 mg/ml; assay type: functional; conditions: read-out: IZ
# Escherichia coli [17] = assay: Antibacterial activity against Escherichia coli assessed as zone of inhibition at 20 mg/ml; assay type: functional; conditions: read-out: IZ
# Serratia marcescens = assay: Antibacterial activity against Serratia marcescens assessed as zone of inhibition at 20 microg/ml; assay type: functional; conditions: read-out: IZ
compound,measurement,setting,value
COc1cc(-c2cc(-c3cc(F)c(Cl)cc3Cl)nc(NC(=O)CSc3nnc(-c4cccnc4N4CCOCC4)o3)n2)cc(OC)c1OC,zone of inhibition at 50 µg/mL,Staphylococcus aureus [1],9 mm
same,zone of inhibition at 50 µg/mL,Escherichia coli [2],14 mm
COc1ccc(-c2cc(-c3ccc(Oc4ccccc4)cc3)nc(SCC(=O)Nc3nc4ccc(OC)cc4s3)n2)cc1,MIC,Pseudomonas aeruginosa [3],25 µg/mL
same,MIC,Escherichia coli [4],25 µg/mL
same,MIC,Staphylococcus aureus [5],50 µg/mL
same,MIC,Streptococcus pyogenes,50 µg/mL
Ic1cnc(SCc2ccccc2)nc1N/N=C/c1c(-c2ccccc2)c(-c2ccccc2)nn1-c1ccccc1,inhibition zone (IZ),Pseudomonas aeruginosa [6],16 mm
same,inhibition zone (IZ),Bacillus subtilis [7],20 mm
same,inhibition zone (IZ),Escherichia coli [8],10 mm
same,inhibition zone (IZ),Staphylococcus aureus [9],18 mm
O=C(CSc1nnc(-c2cccnc2N2CCOCC2)o1)Nc1nc(-c2ccc(F)cc2)cc(-c2cc(F)c(Cl)cc2Cl)n1,zone of inhibition at 50 µg/mL,Staphylococcus aureus [1],11 mm
same,zone of inhibition at 50 µg/mL,Escherichia coli [2],11 mm
O=C1OC(c2ccc(C(=O)O)cc2)N=C1/C=C/c1ccc(C(=O)c2ccco2)cc1 (stereo unspecified),zone of inhibition at 50 µg/mL,Escherichia coli [10],16.7 mm
same,zone of inhibition at 50 µg/mL,Streptococcus pneumoniae,19.3 mm
same,zone of inhibition at 50 µg/mL,Bacillus subtilis [11],21.2 mm
Cc1nc2scc(-c3ccco3)c2c(=O)n1NC(=O)c1ccc(F)cc1F,MIC,Salmonella typhimurium,5 µg/mL
same,MIC,Escherichia coli [12],4 µg/mL
same,MIC,Staphylococcus aureus [13],4 µg/mL
same,MIC,Bacillus subtilis [14],5 µg/mL
Oc1ccccc1/C=N/Nc1nc(SCc2ccccc2)ncc1I,inhibition zone (IZ),Pseudomonas aeruginosa [6],18 mm
same,inhibition zone (IZ),Bacillus subtilis [7],13 mm
same,inhibition zone (IZ),Escherichia coli [8],7 mm
same,inhibition zone (IZ),Staphylococcus aureus [9],15 mm
Nc1ncccc1/C=N/Nc1nc(SCc2ccccc2)ncc1I,inhibition zone (IZ),Pseudomonas aeruginosa [6],18 mm
same,inhibition zone (IZ),Bacillus subtilis [7],17 mm
same,inhibition zone (IZ),Escherichia coli [8],7 mm
same,inhibition zone (IZ),Staphylococcus aureus [9],18 mm
Cc1nc2scc(-c3ccco3)c2c(=O)n1NC(=O)c1ccc([N+](=O)[O-])cc1,MIC,Salmonella typhimurium,5 µg/mL
same,MIC,Escherichia coli [12],7 µg/mL
same,MIC,Staphylococcus aureus [13],6 µg/mL
same,MIC,Bacillus subtilis [14],5 µg/mL
CN[C@@H]1[C@H](O[C@H]2[C@H](O[C@H]3[C@H](O)[C@@H](O)[C@H](N=C(N)N)[C@@H](O)[C@@H]3N=C(N)N)O[C@@H](C)[C@]2(O)C=O)O[C@@H](CO)[C@H](O)[C@H]1O [STREPTOMYCIN],zone of inhibition at 20000 µg/mL,Bacillus subtilis [15],18 mm
same,zone of inhibition at 20000 µg/mL,Sarcina,18 mm
same,zone of inhibition at 20000 µg/mL,Staphylococcus aureus [16],18 mm
same,zone of inhibition at 20000 µg/mL,Escherichia coli [17],18 mm
same,zone of inhibition at 20 µg/mL,Serratia marcescens,18 mm
Cc1ccc(-c2c(C(=O)c3ccc(C(=O)O)cc3)c(N)nc3ncnn23)cc1,zone of inhibition at 50 µg/mL,Escherichia coli [10],16.6 mm
same,zone of inhibition at 50 µg/mL,Streptococcus pneumoniae,20.7 mm
same,zone of inhibition at 50 µg/mL,Bacillus subtilis [11],26.8 mm
CSc1c(C#N)c(N)nc2c(/N=N/c3ccc(S(=O)(=O)Nc4ncc(C)cn4)cc3)c(=O)[nH]n12,zone of inhibition at 20000 µg/mL,Bacillus subtilis [15],9 mm
same,zone of inhibition at 20000 µg/mL,Sarcina,12 mm
same,zone of inhibition at 20000 µg/mL,Staphylococcus aureus [16],9 mm
same,zone of inhibition at 20000 µg/mL,Escherichia coli [17],12 mm
same,zone of inhibition at 20 µg/mL,Serratia marcescens,15 mm
CCn1cc(C(=O)O)c(=O)c2cc(F)c(N3CCNCC3)cc21 [NORFLOXACIN],MIC,Pseudomonas aeruginosa [3],10 µg/mL
same,MIC,Escherichia coli [4],10 µg/mL
same,MIC,Staphylococcus aureus [5],10 µg/mL
same,MIC,Streptococcus pyogenes,10 µg/mL
COc1ccc(/C=N/Nc2nc(SCc3ccccc3)ncc2I)cc1O,inhibition zone (IZ),Pseudomonas aeruginosa [6],19 mm
same,inhibition zone (IZ),Bacillus subtilis [7],13 mm
same,inhibition zone (IZ),Escherichia coli [8],4 mm
same,inhibition zone (IZ),Staphylococcus aureus [9],12 mm
COc1ccc(-c2cc(-c3ccc(Oc4ccccc4)cc3)nc(SCC(=O)Nc3nc4ccc(S(=O)(=O)O)cc4s3)n2)cc1,MIC,Pseudomonas aeruginosa [3],50 µg/mL
same,MIC,Escherichia coli [4],62.5 µg/mL
same,MIC,Staphylococcus aureus [5],100 µg/mL
same,MIC,Streptococcus pyogenes,100 µg/mL
Cc1cnc(NS(=O)(=O)c2ccc(/N=N/c3c(=O)[nH]n4c(NN)c(C#N)c(N)nc34)cc2)nc1,zone of inhibition at 20000 µg/mL,Bacillus subtilis [15],9 mm
same,zone of inhibition at 20000 µg/mL,Sarcina,12 mm
same,zone of inhibition at 20000 µg/mL,Staphylococcus aureus [16],9 mm
same,zone of inhibition at 20000 µg/mL,Escherichia coli [17],12 mm
same,zone of inhibition at 20 µg/mL,Serratia marcescens,15 mm
CSc1c(C#N)c(N)nc2c(/N=N/c3ccc(S(=O)(=O)Nc4ncccn4)cc3)c(=O)[nH]n12,zone of inhibition at 20000 µg/mL,Bacillus subtilis [15],9 mm
same,zone of inhibition at 20000 µg/mL,Sarcina,12 mm
same,zone of inhibition at 20000 µg/mL,Staphylococcus aureus [16],9 mm
same,zone of inhibition at 20000 µg/mL,Escherichia coli [17],15 mm
same,zone of inhibition at 20 µg/mL,Serratia marcescens,15 mm
